Laboratory results reported in ChEMBL document CHEMBL1123097, “Structure-activity relationship in PAF-acether. 2. rac-1-O-Octadecyl-2-O-acetyl-3-O-[gamma-(dimethylamino)propyl]glycerol ” (J Med Chem, 1985).

How the values were obtained:
Cavia porcellus [1] = test: Compound was evaluated in anesthetized guinea pigs, for the percentage drop in platelet counts between 2 min before and 1 min after injection; format: functional
Cavia porcellus [2] = test: Compound was evaluated in anesthetized guinea pigs, for the percentage decrease of bronchoconstrictive activity; format: functional, Lung; set-up: scale not given: the % may be the effect or the level left
Oryctolagus cuniculus [3] = species on record: Oryctolagus cuniculus; test: In vitro platelet aggregating activity in washed rabbit platelets; format: functional
Cavia porcellus [4] = test: Compound was evaluated in anesthetized guinea pigs, for the percentage drop in platelet counts between 2 min before and 1 min after injection at 66 ng/kg; format: functional
Cavia porcellus [5] = test: Compound was evaluated in anesthetized guinea pigs, for the percentage drop in platelet counts between 2 min before and 1 min after injection at 33 ng/kg; format: functional
Oryctolagus cuniculus [6] = species on record: Oryctolagus cuniculus; test: In vitro platelet aggregating activity in washed rabbit platelets; No lysis observed; format: functional
Cavia porcellus [7] = test: Compound was evaluated in anesthetized guinea pigs, for the percentage drop in platelet counts between 2 min before and 1 min after injection at 520ng/kg; format: functional

EC50 (Oryctolagus cuniculus [3]) [nM]	EC50 (Oryctolagus cuniculus [6]) [nM]	SMILES	Aggregation (Cavia porcellus [1]) [%]	Activity (Cavia porcellus [2]) [%]	Aggregation (Cavia porcellus [4]) [%]	Aggregation (Cavia porcellus [5]) [%]	Aggregation (Cavia porcellus [7]) [%]
0.22	–	CCCCCCCCCCCCCCCCCCOCC(COP(=O)([O-])OCC[N+](C)(C)C)OC(C)=O (racemic)	0	100	–	–	–
–	170	CCCCCCCCCCCCCCCCCCOCC(COCCCN(C)C)OC(C)=O.Cl (stereo not given)	–	–	0	0	–
> 4000	–	CCCCCCCCCCCCCCCCCCOCC(O)COCCC[N+](C)(C)C.[OH-] (stereo not given)	–	–	–	–	100
0.057	–	CCCCCCCCCCCCCCCCCCOC[C@H](COP(=O)([O-])OCC[N+](C)(C)C)OC(C)=O	–	–	–	48	–
